Results reported in ChEMBL document CHEMBL5042493, “Enhancing monoamine oxidase B inhibitory activity via chiral fluorination: Structure-activity relationship, biological evaluation, and molecular docking study” (Eur J Med Chem, 2022).
Activity calls are given as the source filed them. The calls are words filed in the database; no cut-off is given here.

Tests used:
[1] = Cmax in Sprague dawley rat at 1 mg/kg, iv measured upto 24 hrs; assay type: ADME, organism-based; set-up: route intravenous, dose 1 mg/kg, time <=24; details: in vivo
[2] = biological target: Cytochrome P450 2C9 (Homo sapiens, UniProt P11712); test: Inhibition of human CYP2C9 preincubated for 10 min followed by addition of NADPH and measured after 10 min by LC-MS/MS analysis; assay type: ADME
[3] = test system: Rattus norvegicus; test: Neuroprotective activity against galantamine-induced Sprague-Dawley rat model of Parkinson's disease assessed as reduction in galantamine-induced tremulous jaw movements at 0.156 to 1.25 mg/kg, ip preincubated with galantamine for 15 mins followed by compound addition and measured after 15 mins; assay type: functional, organism-based; details: dose 0.156-1.25 mg/kg
[4] = Oral bioavailability in Cynomolgus monkey rat at 5 mg/kg measured upto 24 hrs; assay type: ADME, organism-based, Macaca fascicularis; details: in vivo
[5] = Plasma protein binding in rat assessed as unbound fraction at 1 uM measured after 5 hrs by LC-MS/MS analysis; assay type: ADME, cell-free
[6] = biological target: Cytochrome P450 2D6 (Homo sapiens, UniProt P10635); test: Inhibition of human CYP2D6 preincubated for 10 min followed by addition of NADPH and measured after 10 min by LC-MS/MS analysis; assay type: ADME
[7] = biological target: T1, Cytochrome P450 2B6 (Homo sapiens, UniProt P20813); test: Inhibition of human CYP2B6 preincubated for 10 min followed by addition of NADPH and measured after 10 min by LC-MS/MS analysis; assay type: ADME
T1 sequence (P20813 whole entry): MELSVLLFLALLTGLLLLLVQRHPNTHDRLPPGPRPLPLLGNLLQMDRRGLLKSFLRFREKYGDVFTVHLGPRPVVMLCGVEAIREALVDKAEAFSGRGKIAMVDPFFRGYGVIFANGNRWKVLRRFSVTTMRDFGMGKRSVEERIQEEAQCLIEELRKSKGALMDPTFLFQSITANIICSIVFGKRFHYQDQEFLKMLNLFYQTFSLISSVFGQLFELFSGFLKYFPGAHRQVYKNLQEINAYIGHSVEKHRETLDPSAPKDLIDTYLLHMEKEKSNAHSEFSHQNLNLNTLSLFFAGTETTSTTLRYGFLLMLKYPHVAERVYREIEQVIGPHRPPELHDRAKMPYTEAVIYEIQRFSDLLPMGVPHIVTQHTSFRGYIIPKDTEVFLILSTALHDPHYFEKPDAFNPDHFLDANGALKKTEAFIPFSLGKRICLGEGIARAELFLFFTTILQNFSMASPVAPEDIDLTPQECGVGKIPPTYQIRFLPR

[8] = biological target: T2, Cytochrome P450 2C8 (Homo sapiens, UniProt P10632); test: Inhibition of human CYP2C8 preincubated for 10 min followed by addition of NADPH and measured after 45 min by LC-MS/MS analysis; assay type: ADME
T2 sequence (P10632 whole entry): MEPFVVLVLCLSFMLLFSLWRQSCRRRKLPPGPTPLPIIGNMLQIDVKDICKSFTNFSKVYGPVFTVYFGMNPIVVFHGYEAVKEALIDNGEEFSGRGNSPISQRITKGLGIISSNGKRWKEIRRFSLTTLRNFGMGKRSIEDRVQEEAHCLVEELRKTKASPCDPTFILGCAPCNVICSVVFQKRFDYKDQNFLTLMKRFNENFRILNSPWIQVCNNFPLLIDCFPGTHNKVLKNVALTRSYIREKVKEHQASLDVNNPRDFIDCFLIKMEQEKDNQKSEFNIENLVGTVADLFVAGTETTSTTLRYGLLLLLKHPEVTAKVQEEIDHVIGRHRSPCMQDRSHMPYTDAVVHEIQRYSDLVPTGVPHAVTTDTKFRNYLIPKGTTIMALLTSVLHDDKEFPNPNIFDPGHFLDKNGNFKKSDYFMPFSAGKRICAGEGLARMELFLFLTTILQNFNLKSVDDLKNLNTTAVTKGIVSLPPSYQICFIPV

[9] = Metabolic stability in human liver microsome assessed as half life at 1 uM measured after 60 min in presence of NADPH by LC-MS/MS analysis; assay type: ADME; details: liver microsomes
[10] = biological target: hERG (KCNH2) (Homo sapiens, UniProt Q12809); test: Inhibition of human ERG expressed in CHO-K1 cells by Patch Clamp method; assay type: toxicity, cell-based; details: CHO-K1 cells expressing human ERG
[11] = Volume of distribution at steady state in Sprague dawley rat at 1 mg/kg, iv measured upto 24 hrs; assay type: ADME, organism-based; details: in vivo, read-out: Vdss
[12] = Plasma protein binding in mouse assessed as unbound fraction at 1 uM measured after 5 hrs by LC-MS/MS analysis; assay type: ADME, cell-free
[13] = AUC (0-t) in Cynomolgus monkey at 1 mg/kg, iv measured upto 24 hrs; assay type: ADME, organism-based, Macaca fascicularis; set-up: route intravenous, dose 1 mg/kg, time <=24; details: in vivo
[14] = AUC (0-t) in Cynomolgus monkey rat at 5 mg/kg, po measured upto 24 hrs; assay type: ADME, organism-based, Macaca fascicularis; set-up: route oral, dose 5 mg/kg, time <=24; details: in vivo
[15] = Apparent permeability in MDCK-MDR1 cells from basal to apical side at 10 uM; assay type: ADME, cell-based, Canis lupus familiaris; details: dog
[16] = Half life in Sprague dawley rat at 5 mg/kg, po measured upto 24 hrs; assay type: ADME, organism-based; details: in vivo
[17] = biological target: 5-hydroxytryptamine receptor 2B (Homo sapiens) (UniProt P41595); test: Binding affinity to 5-HT2B receptor (unknown origin) expressed in CHO-K1 cells; assay type: cell-based; details: concentration not given here
[18] = Cmax in Cynomolgus monkey at 1 mg/kg, iv measured upto 24 hrs; assay type: ADME, organism-based, Macaca fascicularis; set-up: route intravenous, dose 1 mg/kg, time <=24; details: in vivo

Chain of hERG (KCNH2) (Q12809 whole entry): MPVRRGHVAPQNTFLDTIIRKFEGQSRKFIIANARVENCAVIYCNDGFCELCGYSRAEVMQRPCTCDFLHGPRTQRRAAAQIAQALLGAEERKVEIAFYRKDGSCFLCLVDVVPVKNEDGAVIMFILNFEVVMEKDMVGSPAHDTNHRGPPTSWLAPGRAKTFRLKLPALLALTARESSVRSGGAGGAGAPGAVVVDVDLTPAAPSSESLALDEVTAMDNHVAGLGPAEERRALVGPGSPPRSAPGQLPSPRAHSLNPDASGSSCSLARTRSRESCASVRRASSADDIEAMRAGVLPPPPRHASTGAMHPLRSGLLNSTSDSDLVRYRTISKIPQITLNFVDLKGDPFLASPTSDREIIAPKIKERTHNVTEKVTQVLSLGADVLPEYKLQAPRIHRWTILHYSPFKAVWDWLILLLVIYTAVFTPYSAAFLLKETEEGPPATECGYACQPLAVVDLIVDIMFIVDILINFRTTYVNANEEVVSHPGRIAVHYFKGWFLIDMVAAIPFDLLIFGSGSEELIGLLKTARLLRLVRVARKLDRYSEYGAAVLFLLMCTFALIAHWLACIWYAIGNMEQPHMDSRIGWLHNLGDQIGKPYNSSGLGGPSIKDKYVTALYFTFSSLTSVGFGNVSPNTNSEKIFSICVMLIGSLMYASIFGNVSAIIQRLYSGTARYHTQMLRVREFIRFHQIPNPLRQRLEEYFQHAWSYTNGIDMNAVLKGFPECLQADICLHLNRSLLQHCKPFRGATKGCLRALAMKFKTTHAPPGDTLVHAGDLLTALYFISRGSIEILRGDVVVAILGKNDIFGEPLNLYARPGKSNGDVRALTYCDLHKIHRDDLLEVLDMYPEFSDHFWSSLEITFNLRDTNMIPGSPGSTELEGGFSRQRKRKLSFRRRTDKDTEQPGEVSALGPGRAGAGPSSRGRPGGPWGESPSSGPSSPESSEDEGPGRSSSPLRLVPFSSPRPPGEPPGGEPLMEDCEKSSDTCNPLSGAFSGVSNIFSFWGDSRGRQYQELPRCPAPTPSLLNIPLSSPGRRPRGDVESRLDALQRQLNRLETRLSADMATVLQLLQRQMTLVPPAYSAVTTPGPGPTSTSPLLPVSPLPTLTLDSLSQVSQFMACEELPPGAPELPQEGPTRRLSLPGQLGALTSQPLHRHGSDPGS
Chain of Cytochrome P450 2C9 (P11712 whole entry): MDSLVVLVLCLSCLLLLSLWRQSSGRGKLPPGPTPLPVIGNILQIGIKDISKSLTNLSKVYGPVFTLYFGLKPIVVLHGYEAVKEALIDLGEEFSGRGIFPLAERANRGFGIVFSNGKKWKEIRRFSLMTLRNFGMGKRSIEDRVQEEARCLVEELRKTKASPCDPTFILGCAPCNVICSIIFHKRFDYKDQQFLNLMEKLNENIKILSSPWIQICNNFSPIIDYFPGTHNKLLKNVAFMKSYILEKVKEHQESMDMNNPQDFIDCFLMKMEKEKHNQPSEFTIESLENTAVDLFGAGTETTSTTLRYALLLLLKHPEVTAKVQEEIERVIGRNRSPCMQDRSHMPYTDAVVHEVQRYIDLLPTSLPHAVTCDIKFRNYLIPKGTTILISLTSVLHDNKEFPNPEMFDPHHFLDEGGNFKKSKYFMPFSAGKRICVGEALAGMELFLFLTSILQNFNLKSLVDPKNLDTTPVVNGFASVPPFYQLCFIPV
Chain of Cytochrome P450 2D6 (P10635 whole entry): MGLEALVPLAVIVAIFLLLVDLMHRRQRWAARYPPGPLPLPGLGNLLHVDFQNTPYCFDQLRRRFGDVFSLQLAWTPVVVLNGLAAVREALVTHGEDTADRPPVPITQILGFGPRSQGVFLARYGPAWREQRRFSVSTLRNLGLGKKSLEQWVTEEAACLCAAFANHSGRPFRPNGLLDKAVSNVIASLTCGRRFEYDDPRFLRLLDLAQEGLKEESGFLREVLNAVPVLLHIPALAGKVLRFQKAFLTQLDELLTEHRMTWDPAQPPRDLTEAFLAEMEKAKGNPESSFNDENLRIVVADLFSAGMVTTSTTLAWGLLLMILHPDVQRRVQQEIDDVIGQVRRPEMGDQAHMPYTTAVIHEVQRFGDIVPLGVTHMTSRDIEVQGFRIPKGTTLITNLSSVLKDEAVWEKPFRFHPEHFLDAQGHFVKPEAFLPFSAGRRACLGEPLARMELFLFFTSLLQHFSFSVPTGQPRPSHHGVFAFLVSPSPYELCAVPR
Chain of 5-hydroxytryptamine receptor 2B (Homo sapiens) (P41595 whole entry): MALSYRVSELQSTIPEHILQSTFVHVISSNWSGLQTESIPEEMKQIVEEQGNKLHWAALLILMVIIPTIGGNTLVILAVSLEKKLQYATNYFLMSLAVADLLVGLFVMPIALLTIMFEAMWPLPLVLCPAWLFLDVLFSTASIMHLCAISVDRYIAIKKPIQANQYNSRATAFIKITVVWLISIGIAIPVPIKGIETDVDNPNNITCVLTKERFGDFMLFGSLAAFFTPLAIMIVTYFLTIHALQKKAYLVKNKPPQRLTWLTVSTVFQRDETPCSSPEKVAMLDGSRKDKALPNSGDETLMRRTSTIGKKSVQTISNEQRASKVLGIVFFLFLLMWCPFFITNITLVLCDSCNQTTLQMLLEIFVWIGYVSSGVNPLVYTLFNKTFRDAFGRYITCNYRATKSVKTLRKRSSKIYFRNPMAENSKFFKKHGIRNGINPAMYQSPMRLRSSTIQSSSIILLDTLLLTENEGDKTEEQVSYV

Compound: NC(=O)[C@@H]1C[C@H](F)CN1Cc1ccc(OCc2cccc(F)c2)cc1
- Cmax [1]: 690 ng/mL
- IC50 [2]: > 29 µM
- Activity [3]: Active
- bioavailability [4]: 107%
- fraction unbound at 5 h, 1 µM [5]: 0.0504
- IC50 [6]: > 29 µM
- IC50 [7]: > 29 µM
- IC50 [8]: > 29 µM
- half-life at 1 µM [9]: 2.23 h
- IC50 [10]: > 30 µM
- Vd [11]: 1.37 L/kg
- fraction unbound at 5 h, 1 µM [12]: 0.0516
- AUC(0-t) at 24 h [13]: 2120 ng·h/mL
- AUC(0-t) at 24 h [14]: 11300 ng·h/mL
- Papp B→A at 10 µM [15]: 22.8 ×10⁻⁶ cm/s
- half-life [16]: 0.57 h
- inhibition [17]: 57%
- Cmax [18]: 924 ng/mL
